Reference: patent publication US12172975B2, “1H-indazole carboxamides as receptor-interacting protein kinase 1 inhibitors (RIPK1)” (BRISTOL-MYERS SQUIBB COMPANY, priority 2018, dated 2024)
Where a name gives a salt, the structure may show the parent alone. Read-outs that look alike come from different tables or passages of the source.

Assays:
[1] = test system: MLKL phosphorylation in HT29-L23 human colorectal adenocarcinoma cells; test: MLKL Phosphorylation High-Content Assay; format: cell-based; details: necroptosis induced with TNFα, SMAC mimetic and Z-VAD, 6 h, read-out: pMLKL (IC50)
In short: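 Following fixation and staining for phospho-S358 MLKL with Hoechst nuclear counterstain, high-content imaging quantified phosphorylation in HT29-L23 cells challenged 6 h with TNFα 35 ng/mL, SMAC mimetic 700 nM and Z-VAD 140 nM. Nec-1s at 6.25 μM defined full inhibition; 4-parameter logistic fits yielded IC50 and Ymax.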

[2] = molecular target: His-GST-TVMV-hRIPK1 (1-324) (Homo sapiens (Human), UniProt Q13546); test: RIPK1 HTRF Binding Assay; details: read-out: RIPK1 HTRF (IC50); FRET probe displacement, 1 h at rt
Chain of His-GST-TVMV-hRIPK1 (1-324) (Q13546 1-324): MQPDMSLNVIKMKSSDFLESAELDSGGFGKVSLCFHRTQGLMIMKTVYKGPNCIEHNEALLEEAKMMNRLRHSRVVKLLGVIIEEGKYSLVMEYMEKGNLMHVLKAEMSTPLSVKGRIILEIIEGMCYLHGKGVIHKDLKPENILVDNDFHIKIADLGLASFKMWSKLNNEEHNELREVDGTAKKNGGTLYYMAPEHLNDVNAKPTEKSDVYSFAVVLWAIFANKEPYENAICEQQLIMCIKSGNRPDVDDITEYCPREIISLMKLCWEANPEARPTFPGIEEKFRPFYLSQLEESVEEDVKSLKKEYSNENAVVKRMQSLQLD

| SMILES | IC50 [1] [nM] | IC50 [2] [nM] | IC50 ([1]; Homo sapiens) [nM] |
| --- | --- | --- | --- |
| CNC(=O)c1n[nH]c2cc(-c3cnc(OC)c(C(=O)NC4CCCC(C(=O)N5CCOCC5)C4)c3)ccc12 (stereo not drawn) [Example 98, 6-(6-methoxy-5-{[3-(morpho-line-4-carbonyl)cyclohexyl]-carbamoyl}pyridin-3-yl)-N-methyl-1H-indazole-3-carbox-amide] | 46 | 26 |  |
| CNC(=O)c1n[nH]c2cc(-c3cnc(OC)c(C(=O)NCc4ccccc4OCC(F)(F)F)c3)ccc12 [Example 75, 6-[6-methoxy-5-({[2-(2,2,2-trifluoroethoxy)phenyl]-methyl}carbamoyl)pyridin-3-yl]-N-methyl-1H-indazole-3-carboxamide, TFA] | 4.4 | 1.8 |  |
| COc1ncc(-c2ccc3c(C(=O)NC4CC(=O)N(C)C4)n[nH]c3c2)cc1C(=O)NCc1ccccc1OC(F)(F)F (stereo not drawn) [Example 187, 6-[6-methoxy-5-({[2-(trifluoro-methoxy)phenyl]methyl}-carbamoyl)pyridin-3-yl]-N-(1-methyl-5-oxopyrrolidin-3-yl)-1H-indazole-3-carboxamide, TFA] |  | 28 | 78 |
| COc1ccccc1N1CC(NC(=O)c2n[nH]c3cc(-c4cnc(OC)c(C(=O)NCc5ccccc5OC(F)(F)F)c4)ccc23)CC1=O (stereo not drawn) [Example 186, 6-[6-methoxy-5-({[2-(trifluoro-methoxy)phenyl]methyl}-carbamoyl)pyridin-3-yl]-N-[1-(2-methoxyphenyl)-5-oxo-pyrrolidin-3-yl]-1H-indazole-3-carboxamide] |  | 95 | 13 |
| CNC(=O)c1n[nH]c2cc(-c3cnc(OC)c(C(=O)NCCCOC4CCCCC4)c3)ccc12 [Example 62, 6-(5-{[3-(cyclohexyloxy)-propyl]carbamoyl}-6-methoxy-pyridin-3-yl)-N-methyl-1H-indazole-3-carboxamide] |  | 6.8 | 26 |
| [2H]C([2H])([2H])NC(=O)c1n[nH]c2cc(-c3cnc(OC)c(C(=O)NCC(C)(C)C(=O)OC(C)(C)C)c3)ccc12 [Example 149, tert-butyl 3-[(2-methoxy-5-{3-[(deutero)methylcarbamoyl]-1H-indazol-6-yl}pyridin-3-yl)-formamido]-2,2-dimethyl-propanoate] |  | 33 | 74 |
| CNC(=O)c1n[nH]c2cc(-c3cnc(OC)c(C(=O)NCC4CCCOC4C(C)(C)C)c3)ccc12 (stereo not drawn) [Example 83, 6-(5-{[(2-tert-butyloxan-3-yl)-methyl]carbamoyl}-6-methoxy-pyridin-3-yl)-N-methyl-1H-indazole-3-carboxamide] |  | 7.6 | 47 |
| CNC(=O)c1n[nH]c2cc(-c3cnc(OC)c(C(=O)NCCCOc4ccc(F)cc4)c3)ccc12 [Example 63, 6-(5-{[3-(4-fluorophenoxy)-propyl]carbamoyl}-6-methoxy-pyridin-3-yl)-N-methyl-1H-indazole-3-carboxamide] |  | 2.3 | 16 |
| CCNC(=O)c1n[nH]c2cc(-c3cnc(OC)c(C(=O)N[C@@H](C)c4cc(C(F)(F)F)ccc4F)c3)ccc12 [Example 236, N-[(1,1,2,2,2-deutero)ethyl]-6-(5-{[(1S)-1-[2-fluoro-5-(trifluorometh-yl)phenyl](2,2,2-deutero)ethyl]-carbamoyl}-6-(deutero)methoxy-pyridin-3-yl)-1H-indazole-3-carbox-amide] | 40 | 37 |  |
| CNC(=O)c1n[nH]c2cc(-c3cnc(OC)c(C(=O)NCc4ccccc4OCC4CCC4)c3)ccc12 [Example 86, 6-[5-({[2-(cyclobutylmethoxy)-phenyl]methyl}carbamoyl)-6-methoxypyridin-3-yl]-N-methyl-1H-indazole-3-carbox-amide] | 4.1 | 2.4 |  |
| CCCN(C)C(=O)C1CCCC(NC(=O)c2cc(-c3ccc4c(C(=O)NC)n[nH]c4c3)cnc2OC)C1 (stereo not drawn) [Example 100, 6-[6-methoxy-5-({3-[methyl-(propyl)carbamoyl]cyclo-hexyl}carbamoyl)pyridin-3-yl]-N-methyl-1H-indazole-3-carboxamide] |  | 18 | 63 |
| CCN(CC)C1CCC(NC(=O)c2n[nH]c3cc(-c4cnc(OC)c(C(=O)NCc5ccccc5OC(F)(F)F)c4)ccc23)CC1 (stereo not drawn) [Example 184, N-[4-(diethylamino)cyclohexyl]-6-[6-methoxy-5-({[2-(trifluoro-methoxy)phenyl]methyl}carbam-oyl)pyridin-3-yl]-1H-indazole-3-carboxamide, TFA] |  | 7 | 88 |
| CNC(=O)c1n[nH]c2cc(-c3cnc(OC)c(C(=O)NCc4cccnc4OCC4CCC4)c3)ccc12 [Example 112, 6-[5-({[2-(cyclobutylmeth-oxy)pyridin-3-yl]methyl}-carbamoyl)-6-methoxypyridin-3-yl]-N-methyl-1H-indazole-3-carboxamide] |  | 4.8 | 7.6 |
| CNC(=O)c1n[nH]c2cc(-c3cnc(OC)c(C(=O)NCC4(c5ccccc5OC(F)(F)F)CC4)c3)ccc12 [Example 72, 6-{6-methoxy-5-[({1-[2-(tri-fluoromethoxy)phenyl]cyclo-propyl}methyl)carbamoyl]-pyridin-3-yl}-N-methyl-1H-indazole-3-carboxamide] |  | 390 | 400 |
| CNC(=O)c1n[nH]c2cc(-c3cnc(OC)c(C(=O)NC4CCCC(C(=O)N5CCCC5)C4)c3)ccc12 (stereo not drawn) [Example 99, 6-(6-methoxy-5-{[3-(pyrrol-idine-1-carbonyl)cyclohexyl]-carbamoyl}pyridin-3-yl)-N-methyl-1H-indazole-3-carbox-amide] | 14 | 11 |  |
| CNC(=O)c1n[nH]c2cc(-c3cnc(OC)c(C(=O)NC4CCCC(C(=O)N5CC(F)(F)C5)C4)c3)ccc12 (stereo not drawn) [Example 132, 6-(5-{[3-(3,3-difluoroazet-idine-1-carbonyl)cyclohexyl]-carbamoyl}-6-methoxypyridin-3-yl)-N-methyl-1H-indazole-3-carboxamide, TFA] | 140 | 35 |  |
| [2H]C([2H])([2H])Oc1ncc(-c2ccc3c(C(=O)NC)n[nH]c3c2)cc1C(=O)NCC(C)(C)C(=O)OC(C)(C)C [Example 28, tert-butyl 3-{[2-(deutero)meth-oxy-5-[3-(methylcarbamoyl)-1H-indazol-6-yl]pyridin-3-yl]form-amido}-2,2-dimethylpropanoate, TFA] |  | 17 | 37 |
| CNC(=O)c1n[nH]c2cc(-c3cnc(OC)c(C(=O)NC4CCCC(C(=O)N(C)C)C4)c3)ccc12 (stereo not drawn) [Example 120, 6-(5-{[3-(dimethylcarbam-oyl)cyclohexyl]carbamoyl}-6-methoxypyridin-3-yl)-N-methyl-1H-indazole-3-carbox-amide] | 100 | 11 |  |
| [2H]C([2H])([2H])NC(=O)c1n[nH]c2cc(-c3cnc(OC)c(C(=O)NCc4ccccc4OC(F)(F)F)c3)ccc12 [Example 153] |  | 2.9 | 6.3 |
| COc1ncc(-c2ccc3c(C(=O)NC4CC4)n[nH]c3c2)cc1C(=O)N[C@H](C)c1cc(OC(F)(F)F)ccc1F [Example 207, N-cyclopropyl-6-(5-{[(1R)-1-[2-fluoro-5-(trifluoromethoxy)-phenyl](2,2,2-deutero)ethyl]-carbamoyl}-6-(deutero)methoxy-pyridin-3-yl)-1H-indazole-3-carboxamide] | 110 | 53 |  |
| CNC(=O)c1n[nH]c2cc(-c3cnc(OC)c(C(=O)NCC4CCCCC4)c3)ccc12 [Example 138, 6-{5-[(cyclohexylmethyl)-carbamoyl]-6-methoxy-pyridin-3-yl}-N-methyl-1H-indazole-3-carboxamide] |  | 12 | 89 |
| [2H]C([2H])([2H])Oc1ncc(-c2ccc3c(C(=O)NC)n[nH]c3c2)cc1C(=O)NCC[C@H](O)c1ccc(Cl)cc1 [Example 27, 6-(5-{[(3S)-3-(4-chlorophenyl)-3-hydroxypropyl]carbamoyl}-6-(deutero)methoxypyridin-3-yl)-N-methyl-1H-indazole-3-carbox-amide, TFA] |  | 2.5 | 8 |
| CNC(=O)c1n[nH]c2cc(-c3cc(C(=O)NCC4CCCC4(C)C)c(OC)nc3C)ccc12 (stereo not drawn) [Example 159, 6-(5-{[(2,2-dimethylcyclo-pentyl)methyl]carbamoyl}-6-methoxy-2-methyl-pyridin-3-yl)-N-methyl-1H-indazole-3-carboxamide] |  | 34 | 110 |
| [2H]C([2H])([2H])C([2H])([2H])NC(=O)c1n[nH]c2cc(-c3cnc(OC)c(C(=O)NCc4ccccc4OC(F)(F)F)c3)ccc12 [Example 183, N-[(1,1,2,2,2-deutero)ethyl]-6-[6-methoxy-5-({[2-(trifluoro-methoxy)phenyl]methyl}carbam-oyl)pyridin-3-yl]-1H-indazole-3-carboxamide] |  | 5.9 | 15 |
| [2H]C([2H])([2H])Oc1ncc(-c2ccc3c(C(=O)NCC4CC4)n[nH]c3c2)cc1C(=O)NC(C)c1cccc(OC(F)(F)F)c1 (stereo not drawn) [Example 166, N-(cyclopropylmethyl)-6-[6-(deutero)methoxy-5-({1-[3-(tri-fluoromethoxy)phenyl]ethyl}-carbamoyl)pyridin-3-yl]-1H-indazole-3-carboxamide] |  | 83 | 34 |
| CNC(=O)c1n[nH]c2cc(-c3cnc(OC)c(C(=O)NC45CC6CC(C4)CC(c4ccccc4)(C6)C5)c3)ccc12 [Example 95, 6-{6-methoxy-5-[(3-phenyl-adamantan-1-yl)carbamoyl]-pyridin-3-yl}-N-methyl-1H-indazole-3-carboxamide] |  | 17 | 9.3 |
| CCCNC(=O)c1n[nH]c2cc(-c3cnc(OC)c(C(=O)NCc4ccccc4OC(F)(F)F)c3)ccc12 [Example 176, 6-[6-methoxy-5-({[2-(trifluoro-methoxy)phenyl]methyl}carbam-oyl)pyridin-3-yl]-N-propyl-1H-indazole-3-carboxamide] |  | 10 | 16 |
